This note sets out measurements from patent US20220323406A1, “METHODS AND COMPOSITIONS FOR DIFFERENTIATING STEM CELLS” (Massachusetts Institute of Technology, priority 2019, published 2022).

Assay [1] relates to ENR+CD organoids (ISC to Paneth cell differentiation). In words: Primary screen: basal (non-stimulated) lysozyme secretion LYZ.NS, 2.5-D 384-well ENR+CD organoid differentiation. The conditions noted are these: primary screen; for Z.LYZ.NS: standard z score. Type of assay: cell-based, mouse. From the text:
(§1) High-throughput screening.

For assay [2] the test system is unchanged. Description: Primary screen: CCh-stimulated lysozyme secretion LYZ.S, 2.5-D 384-well ENR+CD organoid differentiation. To be noted: primary screen. It is filed as cell-based, mouse.
Excerpt: as §1

In another assay the test system is ENR+CD organoids. Description: Primary screen: ATP (CellTiter-Glo 3D, CTG) cell number/viability, 2.5-D 384-well ENR+CD organoids.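 As to all read-outs here: compounds given at plating and again on day 3 over a 6-day differentiation from ENR+CV stem-cell-enriched precursors, ATP measured on day 6, plate median as control.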 To be noted: primary screen; for Z.CTG: standard z score. (ATP-based viability assays read luminescence as a measure of living cells.)
Where [3] appears, read: dose 0.08 uM, FC vs plate median.
[4] abbreviates: dose 0.40 uM, FC vs plate median.
The mark [5] stands for this setting: dose 2.00 uM, FC vs plate median.
Where [6] appears, read: dose 10.00 uM, FC vs plate median.
The mark [7] stands for this setting: 1st dose row of the treatment (0.08 uM by row order; dose not reprinted).
The mark [8] stands for this setting: 2nd dose row of the treatment (0.40 uM by row order; dose not reprinted).
The mark [9] stands for this setting: 3rd dose row of the treatment (2.00 uM by row order; dose not reprinted).
Where [10] appears, read: 4th dose row of the treatment (10.00 uM by row order; dose not reprinted).

As to `O=C(O)c1ccc(Nc2ncc3c(n2)-c2ccc(Cl)cc2C(c2c(F)cccc2F)=NC3)cc1` [MLN8054], the Z.LYZ.NS in assay [1] (dose 0.08 uM) is reported as 0.574; in assay [1] (dose 0.40 uM) it was 0.066; in assay [1] (dose 2.00 uM), −0.868; in assay [1] (dose 10.00 uM), −0.979. Moreover, the Dose.FC.LYZ.NS was 0.066 log2 fold change in assay [1] (setting [3]), 0.008 log2 fold change in assay [1] (setting [4]), −0.100 log2 fold change in assay [1] (setting [5]) and −0.112 log2 fold change in assay [1] (setting [6]). Also, the Dose.FC.LYZ.S in assay [2] (setting [3]) is 0.042 log2 fold change; in assay [2] (setting [4]), 0.167 log2 fold change; in assay [2] (setting [5]), −0.087 log2 fold change; in assay [2] (setting [6]) it was −0.197 log2 fold change. The Dose.FC.CTG in the assay with ENR+CD organoids (setting [3]) is 0.026 log2 fold change; with ENR+CD organoids (setting [4]), 0.014 log2 fold change; with ENR+CD organoids (setting [5]), −0.465 log2 fold change; with ENR+CD organoids (setting [6]) it was −0.498 log2 fold change.
Regarding `O=C(Nc1cc(C(F)(F)F)cc(C(F)(F)F)c1)c1cc(Cl)ccc1O` [IMD 0354], the “Dose.FC.LYZ.NS (log2 fold change)” value is listed as 0.004 in assay [1] (dose 0.08 uM), 0.101 in assay [1] (dose 0.40 uM), 0.097 in assay [1] (dose 2.00 uM) and −0.089 in assay [1] (dose 10.00 uM). In addition, the “Z.LYZ.NS (standard z score)” value in assay [1] (dose 0.08 uM) is 0.035; in assay [1] (dose 0.40 uM) it was 0.880; in assay [1] (dose 2.00 uM), 0.847; in assay [1] (dose 10.00 uM), −0.777. The “Dose.FC.LYZ.S (log2 fold change)” value is −0.047 in assay [2] (dose 0.08 uM), 0.043 in assay [2] (dose 0.40 uM), 0.083 in assay [2] (dose 2.00 uM) and −0.128 in assay [2] (dose 10.00 uM). For the same compound, the “Dose.FC.CTG (log2 fold change)” value is recorded as −0.007 with ENR+CD organoids (dose 0.08 uM), 0.117 in the assay on ENR+CD organoids (dose 0.40 uM), 0.076 in the assay with ENR+CD organoids (dose 2.00 uM) and −0.480 in the assay with ENR+CD organoids (dose 10.00 uM).
VU 0364770: the Dose.FC.LYZ.NS was determined as 0.155 log2 fold change in assay [1] (dose 0.08 uM), 0.085 log2 fold change in assay [1] (dose 0.40 uM), 0.117 log2 fold change in assay [1] (dose 2.00 uM) and 0.102 log2 fold change in assay [1] (dose 10.00 uM). Moreover, the “Z.LYZ.NS (standard z score)” value in assay [1] (dose 0.08 uM) stood at 1.350; in assay [1] (dose 0.40 uM), 0.736; in assay [1] (dose 2.00 uM), 1.020; in assay [1] (dose 10.00 uM) it was 0.884. Also, the Dose.FC.LYZ.S is recorded as 0.082 log2 fold change in assay [2] (dose 0.08 uM), 0.125 log2 fold change in assay [2] (dose 0.40 uM), 0.139 log2 fold change in assay [2] (dose 2.00 uM) and 0.066 log2 fold change in assay [2] (dose 10.00 uM). Further, the Dose.FC.CTG is on record as 0.013 log2 fold change in the assay on ENR+CD organoids (dose 0.08 uM), 0.085 log2 fold change in the assay with ENR+CD organoids (dose 0.40 uM), 0.083 log2 fold change in the assay with ENR+CD organoids (dose 2.00 uM) and −0.103 log2 fold change with ENR+CD organoids (dose 10.00 uM). Also, the “Z.CTG (standard z score)” value in the assay on ENR+CD organoids (dose 0.08 uM) is given as 0.031; in the assay on ENR+CD organoids (dose 0.40 uM), 0.204; in the assay on ENR+CD organoids (dose 2.00 uM), 0.199; with ENR+CD organoids (dose 10.00 uM), −0.246.
Turning to `CCO.N#CC(=C(/N)Sc1ccccc1N)/C(C#N)=C(\N)Sc1ccccc1N` [U0126-EtOH], the Dose.FC.LYZ.NS in assay [1] (dose 0.08 uM) is 0.099 log2 fold change; in assay [1] (dose 0.40 uM), 0.019 log2 fold change; in assay [1] (dose 2.00 uM), −0.045 log2 fold change; in assay [1] (dose 10.00 uM), −0.117 log2 fold change. The “Z.LYZ.NS (standard z score)” value in assay [1] (dose 0.08 uM) is 0.859; in assay [1] (dose 0.40 uM), 0.163; in assay [1] (dose 2.00 uM) it was −0.389; in assay [1] (dose 10.00 uM), −1.021. For the same compound, the Dose.FC.LYZ.S is listed as 0.114 log2 fold change in assay [2] (dose 0.08 uM), 0.075 log2 fold change in assay [2] (dose 0.40 uM), −0.071 log2 fold change in assay [2] (dose 2.00 uM) and −0.165 log2 fold change in assay [2] (dose 10.00 uM). The Dose.FC.CTG is given as −0.350 log2 fold change in the assay with ENR+CD organoids (dose 0.08 uM), −0.514 log2 fold change in the assay with ENR+CD organoids (dose 0.40 uM), −0.476 log2 fold change with ENR+CD organoids (dose 2.00 uM) and −0.790 log2 fold change in the assay with ENR+CD organoids (dose 10.00 uM). Further, the “Z.CTG (standard z score)” value with ENR+CD organoids (dose 0.08 uM) was −0.835; in the assay on ENR+CD organoids (dose 0.40 uM), −1.227; in the assay on ENR+CD organoids (dose 2.00 uM), −1.138; in the assay with ENR+CD organoids (dose 10.00 uM), −1.887.
For `N#Cc1c(O)c2c(-c3ccc(-c4ccccc4O)cc3)csc2[nH]c1=O` [A-769662], the “SSMD.LYZ.NS_Rep (strictly standardized mean difference)” value in assay [1] (setting [7]) came out at 0.286; in assay [1] (setting [8]), 0.498; in assay [1] (setting [9]), 0.554; in assay [1] (setting [10]), 0.068. Further, the Dose.FC.LYZ.NS in assay [1] (dose 0.08 uM) turned out to be 0.045 log2 fold change; in assay [1] (dose 0.40 uM) it was 0.069 log2 fold change; in assay [1] (dose 2.00 uM) it was 0.054 log2 fold change; in assay [1] (dose 10.00 uM), 0.009 log2 fold change. In addition, the “Z.LYZ.NS (standard z score)” value in assay [1] (dose 0.08 uM) is 0.394; in assay [1] (dose 0.40 uM), 0.599; in assay [1] (dose 2.00 uM), 0.473; in assay [1] (dose 10.00 uM), 0.075. The “SSMD.LYZ.S_Rep (strictly standardized mean difference)” value was 0.365 in assay [2] (setting [7]), 0.472 in assay [2] (setting [8]), 0.488 in assay [2] (setting [9]) and 0.119 in assay [2] (setting [10]). Besides, the “Z.LYZ.S (standard z score)” value in assay [2] (setting [7]) is reported as 0.426; in assay [2] (setting [8]), 0.460; in assay [2] (setting [9]), 1.191; in assay [2] (setting [10]), 0.121. Further, the Dose.FC.LYZ.S in assay [2] (dose 0.08 uM) came to 0.066 log2 fold change; in assay [2] (dose 0.40 uM) it was 0.071 log2 fold change; in assay [2] (dose 2.00 uM) it was 0.184 log2 fold change; in assay [2] (dose 10.00 uM) it was 0.019 log2 fold change. Besides, the “SSMD.CTG.Rep (strictly standardized mean difference)” value is reported as −0.255 in the assay with ENR+CD organoids (setting [7]), 0.019 with ENR+CD organoids (setting [8]), −0.312 in the assay with ENR+CD organoids (setting [9]) and −0.056 with ENR+CD organoids (setting [10]). Also, the Dose.FC.CTG with ENR+CD organoids (dose 0.08 uM) is reported as −0.074 log2 fold change; with ENR+CD organoids (dose 0.40 uM) it was 0.007 log2 fold change; with ENR+CD organoids (dose 2.00 uM), −0.127 log2 fold change; with ENR+CD organoids (dose 10.00 uM), −0.015 log2 fold change. Further, the “Z.CTG (standard z score)” value in the assay with ENR+CD organoids (dose 0.08 uM) is −0.177; in the assay on ENR+CD organoids (dose 0.40 uM), 0.016; in the assay on ENR+CD organoids (dose 2.00 uM), −0.304; with ENR+CD organoids (dose 10.00 uM) it was −0.036.
Consider `COc1ccccc1Oc1c(NS(=O)(=O)c2ccc(C(C)(C)C)cc2)nc(-c2ncccn2)nc1OCCO` [Bosentan Hydrate], for which the Dose.FC.LYZ.NS in assay [1] (dose 0.08 uM) was 0.090 log2 fold change; in assay [1] (dose 0.40 uM) it was 0.068 log2 fold change; in assay [1] (dose 2.00 uM) it was 0.039 log2 fold change; in assay [1] (dose 10.00 uM) it was 0.058 log2 fold change. Further, the “Z.LYZ.NS (standard z score)” value is reported as 0.785 in assay [1] (dose 0.08 uM), 0.589 in assay [1] (dose 0.40 uM), 0.337 in assay [1] (dose 2.00 uM) and 0.508 in assay [1] (dose 10.00 uM). In addition, the Dose.FC.LYZ.S amounted to 0.145 log2 fold change in assay [2] (dose 0.08 uM), 0.100 log2 fold change in assay [2] (dose 0.40 uM), 0.014 log2 fold change in assay [2] (dose 2.00 uM) and 0.045 log2 fold change in assay [2] (dose 10.00 uM). Besides, the Dose.FC.CTG with ENR+CD organoids (dose 0.08 uM) is given as 0.204 log2 fold change; with ENR+CD organoids (dose 0.40 uM) it was 0.207 log2 fold change; in the assay on ENR+CD organoids (dose 2.00 uM) it was 0.121 log2 fold change; in the assay on ENR+CD organoids (dose 10.00 uM), 0.085 log2 fold change.
In the case of `O=C(Nc1cccnc1)N1CCC(Cc2cccc(Oc3ccc(C(F)(F)F)cn3)c2)CC1` [PF-3845], the Z.LYZ.NS is 0.532 in assay [1] (dose 0.08 uM), −0.668 in assay [1] (dose 0.40 uM), −0.131 in assay [1] (dose 2.00 uM) and −1.137 in assay [1] (dose 10.00 uM). Further, the Dose.FC.LYZ.NS in assay [1] (setting [3]) was 0.061 log2 fold change; in assay [1] (setting [4]), −0.077 log2 fold change; in assay [1] (setting [5]), −0.015 log2 fold change; in assay [1] (setting [6]) it was −0.131 log2 fold change. Besides, the Dose.FC.LYZ.S is given as 0.027 log2 fold change in assay [2] (setting [3]), −0.061 log2 fold change in assay [2] (setting [4]), −0.032 log2 fold change in assay [2] (setting [5]) and −0.195 log2 fold change in assay [2] (setting [6]). The Z.CTG in the assay with ENR+CD organoids (dose 0.08 uM) is listed as −0.112; with ENR+CD organoids (dose 0.40 uM) it was 0.125; in the assay with ENR+CD organoids (dose 2.00 uM) it was −0.246; in the assay with ENR+CD organoids (dose 10.00 uM), −0.684. Further, the Dose.FC.CTG in the assay on ENR+CD organoids (setting [3]) was −0.047 log2 fold change; with ENR+CD organoids (setting [4]), 0.052 log2 fold change; with ENR+CD organoids (setting [5]) it was −0.103 log2 fold change; in the assay with ENR+CD organoids (setting [6]), −0.286 log2 fold change.
